Reference: patent US20100285038A1, “Factor Involved in Metastasis and Uses Thereof” (priority 2002, published 2010)
d = 2'-deoxy (DNA); m = 2'-O-methyl

Assays:
[1] = system: PRF1 protein; test: Western blot analysis of PRF1 protein expression in PC-3 cells; type: cell-based, human; details: for expressed PRF1 protein: lysates of PC-3 cells treated with PRF1 specific GeneBlocs or mismatches, polyclonal antibody (FIG. 8A); for expression of PRF1 protein: PC-3 cells under hypoxic conditions, 72 h GeneBloc treatment, CoCl2 treatment for 24 h (FIG. 10B)
Experimental: A polyclonal antibody was generated against PRF1 using standard techniques. The polyclonal antibody thus obtained was tested for its specificity for PRF1. For that purpose, cell lysates from PC-3 cells treated with PRF1 specific antisense molecules, more particularly gene blocks, or mismatches thereof and cells transfected with expression plasmides for recombinant HA-tagged PRF1 were prepared. The lysates were analysed by Western blot analysis using the polyclonal antibody and the results are depicted in FIG. 8 A.
To investigate whether PI 3-kinase activity has an impact on PRF1 protein expression, PC-3 cells were treated either with LY294002 or with DMSO as control. Analysis was performed by Western Blot analysis using the polyclonal antibody as detection means for PRF1 protein. Apart from PRF1 protein, also expression of Akt and phosphorylated Akt (P*Akt) was monitored using respective specific antibodies. Additionally, the expression of p110α and p85 was monitored.
(§1) To investigate whether the expression of PRF1 at the protein level would also be dependent on Akt (PKB) activity and HIF1α activity PC-3 cells were treated with Akt specific antisense molecules. More particularly, two antisense molecules, designated Akt1-GB and Akt2-molecule were used with the readout being the same as discussed in connection with FIG. 9, whereby, additionally, the HIF1α protein expression was monitored using a commercially available protein G-purified polyclonal antibody (R&DSystems, Lot Number: IUGO13071).
(§2) The same experiment using the same markers for monitoring except Akt and P*-Akt was carried out with cells grown under hypoxic conditions which was realized by treating the cells with CoCl2. Two different forms of antisense molecules, namely HIF1α-GB66 and HIF1α-GB67 were used and respective mismatches used as controls.
(§3) A lane of the Blot represents the cell lysate of the cells shown in the corresponding photograph. As a read-out, p110 alpha and p85 are shown as loading control and the component of the PI-3K pathway investigated, i.e. AKT, monitored as P*AKT, HIF1 alpha and PRF1.

[2] = system: PC-3 cells; test: In vitro growth on Matrigel matrix; type: cell-based, human; details: PC-3 cells transfected with GeneBloc; versus corresponding mismatched oligonucleotides
Experimental: PC3 cells were treated with 10 μM LY294002 or DMSO when seeded on Matrigel. If cells were transfected previous to seeding cells were transfected with GeneBloc and trypsinized 48 h post transfection. The cells were washed in medium and seeded into duplicate 24-wells (100.000 cells per well) pre-coated with 250 μl matrigel basement membrane matrix (Becton Dickinson). After incubation for 24 to 72 h photographs were taken at 5× magnification with an Axiocam camera attached to an Axiovert 5100 microscope (Zeiss).
A more confluent growth of the cells is taken as an indication that their metastasis and migration behavior is increased which allows the cells to spread over the three-dimensional structure provided by the matrigel. The result of this example is depicted in FIG. 5.
PC3 cells were transfected and seeded on matrigel as described and growth was monitored. mRNA was isolated from an aliquot of the cells seeded on matrigel and analysed using Taqman assay (left panel). PRF1 (NM_019058) specific mRNA was standardized to internal p110α mRNA levels. A PTEN specific GeneBloc is used as a negative control in the PTEN^−/− PC-3 cells and a p110β specific GeneBloc is used as a positive control for growth in extracellular matrix. […]

[3] = system: PRF1 (NM—019058) specific mRNA; test: PRF1 mRNA knock-down by real time RT-PCR (Taqman) in transfected PC-3 cells; type: cell-based, human; details: PC-3 cells seeded on matrigel; standardized to internal p110α mRNA levels; DCt method
Experimental: Transfections were carried out in 96 well or 10-cm plates (at 30% to 50% confluency) by using various cationic lipids such as Oligofectamine, Lipofectamine (Life Technologies), NC388 (Ribozyme Pharmaceuticals, Inc., Boulder, Colo.), or FuGene 6 (Roche) according to the manufacturer's instructions. GeneBlocs were transfected by adding pre-formed 5× concentrated complex of GeneBloc and lipid in serum-free medium to cells in complete medium. The total transfection volume was 100 μl for cells plated in 96 wells and 10 ml for cells in 10 cm plates. The final lipid concentration was 0.8 to 1.2 μg/ml depending on cell density; the GeneBloc concentration is indicated in each experiment.
The RNA of cells transfected in 96-wells was isolated and purified using the Invisorb RNA HTS 96 kit (InVitek GmbH, Berlin). Inhibition of PRF1 mRNA expression was detected by real time RT-PCR (Taqman) analysis using 300 nM PRF1 5′ primer, 300 nM PRF1 3′ primer and 100 nM of the PRF1 Taqman probe Fam-Tamra labelled. […]
PC3 cells were transfected and seeded on matrigel as described and growth was monitored. mRNA was isolated from an aliquot of the cells seeded on matrigel and analysed using Taqman assay (left panel). […]

[4] = system: PI 3-kinase (p110α and p85); test: Western blot analysis of PI 3-kinase (p110α and p85) expression in PC-3 cells; type: cell-based, human; details: lysates of PC-3 cells treated with PRF1 specific GeneBloc (FIG. 8A)
[5] = system: HIF1α; test: Western blot analysis of HIF1α protein expression in PC-3 cells; type: cell-based, human; details: PC-3 cells under hypoxic conditions; 72 h GeneBloc treatment, CoCl2 treatment for 24 h (FIG. 10B)
Experimental: as §1, §2, §3

[6] = system: PC-3 cells; test: Prostatic tumor growth and lymph node metastasis of PC-3 cells stably transfected with siRNA expression plasmids; type: in vivo, Shoe:NMRI-nu/nu mice; details: 56 days post inoculation, stably transfected PC-3 cells
Experimental: Male Shoe:NMRI-nu/nu mice (Tierzucht Schönwalde GmbH) maintained under SPF conditions (Laminar air flow equipment, Scantainer, Scanbur) served as recipients for the human prostate carcinoma cells. The animals, aged 6-8 weeks and weighing 28-30 g, were inoculated 2×10^6/0.03 ml tumor cells into both, the left dorsolateral lobe of the prostatic gland (iprost; Orthotopic) or the tip of the Lobus lateralis sinister of the liver (ihep; Ectopic). For this purpose, the mice received a total body anaesthesia using a mixture of Ketanest (Parke-Davis GmbH) and Rompun (Bayer Vital GmbH) 80:1 with dosages of 100 mg/kg and 5 mg/kg, respectively. […]
All sacrificed animals were completely dissected and photographically documented. Tumors (Prostatic gland) and metastases (Caudal, lumbar, renal lymph node metastases) were measured in two dimensions by means of a pair of callipers. The volume was calculated according to V (mm^3)=ab^2/2 with b<a. […]
The various siRNA constructs such as the ones directed to p 110 alpha, p110 beta and PTEN as well as the PRF1 specific siRNA were cloned in the same vector construct. […] Resistent pools of cells were expanded and harvested, cell number determined and prepared for animal experiment as described. […]

Molecule: Akt2 GeneBloc: Akt specific antisense molecule (GeneBloc), SEQ ID NO: 38 (antisense UCCUUGTACCCAATGAAGGAG; sugars from the 5' end m6 d9 m6, backbone and methylation of C not given here; DNA gap phosphorothioate-linked, flank linkages not clearly stated, further chemistry not fully specified)
- PRF1 protein level ([1]; PC-3 cells, 72 h after treatment with Akt specific antisense molecules (FIG. 10A)): reduction

Molecule: GeneBloc 70043: third generation antisense oligonucleotide directed to PRF1 mRNA, SEQ ID NO. 7 (antisense CCCAAAAGTTCAGTCGUCUCU; sugars from the 5' end m6 d9 m6, backbone and methylation of C not given here; DNA gap phosphorothioate-linked, flank linkages not clearly stated, further chemistry not fully specified)
- growth on matrigel [2]: Specific growth inhibition
- expressed PRF1 protein [1]: clear reduction
- knockdown of the mRNA of PRF1 [3]: significant knockdown
- PI 3-kinase expression (p110α and p85 specific antibodies) [4]: still being extensively expressed

Molecule: GeneBloc 70044: third generation antisense oligonucleotide directed to PRF1 mRNA, SEQ ID NO. 8 (antisense GCUCCUGCCTCTAGTCUCCAC; sugars from the 5' end m6 d9 m6, backbone and methylation of C not given here; DNA gap phosphorothioate-linked, flank linkages not clearly stated, further chemistry not fully specified)
- growth on matrigel [2]: Specific growth inhibition
- expressed PRF1 protein [1]: significant decrease
- knockdown of the mRNA of PRF1 [3]: significant knockdown

Molecule: GeneBloc 70168: mismatched oligonucleotide (4 mismatches) corresponding to 70043, alias FLJ: 954L21, SEQ ID NO. 12 (CCGAAAAGAACAGTGCUCUCU; sugars from the 5' end m6 d9 m6, backbone and methylation of C not given here; DNA gap phosphorothioate-linked, flank linkages not clearly stated, further chemistry not fully specified)
- expressed PRF1 protein [1]: significantly expressed

Molecule: HIF1α-GB66: GeneBloc antisense molecule specific for HIF1α, SEQ ID NO: 32 (antisense GGUAGUGGTGGCATTAGCAGU; sugars from the 5' end m6 d9 m6, backbone and methylation of C not given here; DNA gap phosphorothioate-linked, flank linkages not clearly stated, further chemistry not fully specified)
- expression of HIF1α at the protein level [5]: significantly reduced
- expression of PRF1 protein [1]: reduced

Molecule: HIF1α-GB67: GeneBloc antisense molecule specific for HIF1α, SEQ ID NO: 34 (antisense UGACUCCTTTTCCTGCUCUGU; sugars from the 5' end m6 d9 m6, backbone and methylation of C not given here; DNA gap phosphorothioate-linked, flank linkages not clearly stated, further chemistry not fully specified)
- expression of HIF1α at the protein level [5]: significantly reduced
- expression of PRF1 protein [1]: reduced

B1: PRF1 specific siRNA: siRNA generated by U6+2 promoter driven expression from plasmid, directed to the mRNA of PRF1; expression cassette SEQ ID NO. 17 (nucleic acid)
DNA: GAATTCCTATTTCCCATGATTCCTTCATATTTGCATATTTTTAAAATGGACTATCATATGCTTACCGTAACTTGAAAGTATTTCGATTTCTTGGCTTTATATATCTTGGGAAAGGACGAAACACCGGGAGACTAGAGGCAGGAGCAAAAAAAAAAACTCCTGCCTCTAGTCTCCACTTTTTCTCGAG
notes: siRNA generated by U6+2 promoter driven expression from plasmid, directed to the mRNA of PRF1; 17
- prostatic tumor growth (volume of primary prostate tumors) ([6]; EGFP expression plasmid as control (FIG. 6C)): significantly inhibited
- total lymph node metastasis (volume) ([6]; EGFP expression plasmid as control (FIG. 6D)): less prominent
